{
  "source": "the kinase profiling compilation of Christmann-Franck et al. (2016)",
  "assay_in_all_cases": "KINOMEscan competition binding",
  "conditions_in_all_cases": "compound 10.0 µM",
  "key": {"PRKACA (human)": {"target": "PRKACA (human) (UniProt P17612)"}, "MAP3K3 (human)": {"target": "MAP3K3 (human) (UniProt Q99759)"}, "MAPK7 (human)": {"target": "MAPK7 (human) (UniProt Q13164)", "sequence (Q13164 whole entry, looked up)": "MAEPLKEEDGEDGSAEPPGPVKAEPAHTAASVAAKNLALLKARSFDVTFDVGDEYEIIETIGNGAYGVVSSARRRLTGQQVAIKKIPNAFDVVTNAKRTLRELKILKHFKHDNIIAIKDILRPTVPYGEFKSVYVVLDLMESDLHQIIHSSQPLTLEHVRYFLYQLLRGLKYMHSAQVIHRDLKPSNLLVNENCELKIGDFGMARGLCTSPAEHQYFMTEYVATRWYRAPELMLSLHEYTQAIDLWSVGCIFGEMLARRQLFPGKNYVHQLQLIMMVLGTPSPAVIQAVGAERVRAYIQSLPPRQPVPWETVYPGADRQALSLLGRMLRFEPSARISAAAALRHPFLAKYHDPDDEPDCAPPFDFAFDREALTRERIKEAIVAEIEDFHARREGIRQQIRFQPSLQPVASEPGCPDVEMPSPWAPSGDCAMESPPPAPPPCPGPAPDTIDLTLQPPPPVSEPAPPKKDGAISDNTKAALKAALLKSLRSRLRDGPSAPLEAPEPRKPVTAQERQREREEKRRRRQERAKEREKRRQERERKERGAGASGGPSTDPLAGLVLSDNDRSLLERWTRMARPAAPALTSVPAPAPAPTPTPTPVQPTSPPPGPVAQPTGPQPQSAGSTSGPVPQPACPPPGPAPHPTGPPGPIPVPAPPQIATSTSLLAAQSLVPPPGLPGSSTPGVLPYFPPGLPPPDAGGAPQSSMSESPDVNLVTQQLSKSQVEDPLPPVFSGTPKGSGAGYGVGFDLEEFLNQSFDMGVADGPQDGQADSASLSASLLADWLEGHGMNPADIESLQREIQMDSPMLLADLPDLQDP"}, "[1]": {"test_system": "PIK3CA (human), P42336 [Q546K]"}, "GSK3A (human)": {"target": "GSK3A (human) (UniProt P49840)"}, "CSNK2A2 (human)": {"target": "CSNK2A2 (human) (UniProt P19784)"}, "CDK18 (human)": {"target": "CDK18 (human) (UniProt Q07002)"}, "RPS6KA2 KD1 (human)": {"target": "RPS6KA2 KD1 (human) (UniProt Q15349)"}, "CPK1 (P.falciparum)": {"test_system": "CPK1 (P.falciparum)"}, "CDC42BPA (human)": {"target": "CDC42BPA (human) (UniProt Q5VT25)"}, "[2]": {"test_system": "FLT3 (human), P36888 [N841I]"}, "ADCK4 (human)": {"target": "ADCK4 (human) (UniProt Q96D53)"}, "YSK4 (human)": {"target": "YSK4 (human) (UniProt Q56UN5)"}, "ACVR1 (human)": {"target": "ACVR1 (human) (UniProt Q04771)"}, "MAP4K3 (human)": {"target": "MAP4K3 (human) (UniProt Q8IVH8)"}, "MERTK (human)": {"target": "MERTK (human) (UniProt Q12866)"}, "PRKCH (human)": {"target": "PRKCH (human) (UniProt P24723)"}, "PAK1 (human)": {"target": "PAK1 (human) (UniProt Q13153)", "sequence (Q13153 whole entry, looked up)": "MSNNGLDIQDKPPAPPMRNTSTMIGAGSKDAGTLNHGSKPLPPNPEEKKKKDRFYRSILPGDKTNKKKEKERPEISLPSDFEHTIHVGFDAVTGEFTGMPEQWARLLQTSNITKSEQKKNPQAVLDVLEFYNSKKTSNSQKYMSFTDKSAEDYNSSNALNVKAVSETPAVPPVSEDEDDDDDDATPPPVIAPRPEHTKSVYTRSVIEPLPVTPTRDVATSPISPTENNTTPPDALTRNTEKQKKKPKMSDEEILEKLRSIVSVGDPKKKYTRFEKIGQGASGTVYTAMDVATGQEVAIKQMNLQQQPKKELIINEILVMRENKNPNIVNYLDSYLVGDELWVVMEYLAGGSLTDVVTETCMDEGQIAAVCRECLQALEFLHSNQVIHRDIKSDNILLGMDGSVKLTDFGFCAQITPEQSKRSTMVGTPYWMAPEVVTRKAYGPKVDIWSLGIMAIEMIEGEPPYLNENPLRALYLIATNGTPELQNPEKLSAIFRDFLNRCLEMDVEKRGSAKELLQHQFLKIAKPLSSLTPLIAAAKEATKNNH"}, "MYLK3 (human)": {"target": "MYLK3 (human) (UniProt Q32MK0)"}, "ROCK2 (human)": {"target": "ROCK2 (human) (UniProt O75116)"}, "STK24 (human)": {"target": "STK24 (human) (UniProt Q9Y6E0)", "sequence (Q9Y6E0 whole entry, looked up)": "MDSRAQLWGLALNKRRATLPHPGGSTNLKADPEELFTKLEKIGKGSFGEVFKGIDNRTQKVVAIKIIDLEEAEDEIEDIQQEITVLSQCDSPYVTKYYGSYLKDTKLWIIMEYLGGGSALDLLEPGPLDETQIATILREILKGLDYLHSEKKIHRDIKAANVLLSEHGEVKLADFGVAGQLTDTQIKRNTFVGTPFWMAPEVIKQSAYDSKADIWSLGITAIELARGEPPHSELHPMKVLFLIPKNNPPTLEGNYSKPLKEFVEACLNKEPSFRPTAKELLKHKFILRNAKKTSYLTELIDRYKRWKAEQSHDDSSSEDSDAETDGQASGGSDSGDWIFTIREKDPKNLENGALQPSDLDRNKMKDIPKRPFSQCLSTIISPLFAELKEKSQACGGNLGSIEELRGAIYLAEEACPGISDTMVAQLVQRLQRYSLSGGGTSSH"}, "PAK3 (human)": {"target": "PAK3 (human) (UniProt O75914)"}, "HIPK4 (human)": {"target": "HIPK4 (human) (UniProt Q8NE63)"}, "CDK13 (human)": {"target": "CDK13 (human) (UniProt Q14004)"}, "LATS2 (human)": {"target": "LATS2 (human) (UniProt Q9NRM7)"}, "MLTK (human)": {"target": "MLTK (human) (UniProt Q9NYL2)"}, "TTK (human)": {"target": "TTK (human) (UniProt P33981)", "sequence (P33981 whole entry, looked up)": "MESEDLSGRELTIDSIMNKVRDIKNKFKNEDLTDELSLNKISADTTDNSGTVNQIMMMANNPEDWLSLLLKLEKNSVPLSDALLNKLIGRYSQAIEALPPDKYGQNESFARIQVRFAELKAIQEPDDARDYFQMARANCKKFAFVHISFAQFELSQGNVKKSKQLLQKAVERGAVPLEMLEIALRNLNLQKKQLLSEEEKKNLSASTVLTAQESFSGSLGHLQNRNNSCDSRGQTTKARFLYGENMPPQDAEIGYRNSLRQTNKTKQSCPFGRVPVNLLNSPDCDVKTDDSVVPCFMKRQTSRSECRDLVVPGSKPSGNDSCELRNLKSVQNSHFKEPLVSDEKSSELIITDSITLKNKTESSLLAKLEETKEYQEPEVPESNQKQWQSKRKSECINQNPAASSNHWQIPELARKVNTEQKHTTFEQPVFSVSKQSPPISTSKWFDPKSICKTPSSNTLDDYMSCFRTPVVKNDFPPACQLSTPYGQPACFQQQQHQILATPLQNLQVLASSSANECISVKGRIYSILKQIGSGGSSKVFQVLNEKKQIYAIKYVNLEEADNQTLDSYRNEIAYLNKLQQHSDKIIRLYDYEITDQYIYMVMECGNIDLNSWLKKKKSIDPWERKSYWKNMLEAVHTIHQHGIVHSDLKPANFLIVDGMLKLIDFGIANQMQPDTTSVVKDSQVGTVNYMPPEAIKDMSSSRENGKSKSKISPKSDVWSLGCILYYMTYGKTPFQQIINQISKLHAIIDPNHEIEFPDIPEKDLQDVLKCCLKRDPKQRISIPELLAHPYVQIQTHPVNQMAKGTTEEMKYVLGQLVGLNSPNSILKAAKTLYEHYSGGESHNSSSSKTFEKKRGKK"}, "[3]": {"test_system": "FLT3 (human), P36888 [D835Y]"}, "PRKCI (human)": {"target": "PRKCI (human) (UniProt P41743)"}, "FER (human)": {"target": "FER (human) (UniProt P16591)"}, "PIK3C2B (human)": {"target": "PIK3C2B (human) (UniProt O00750)"}, "YES1 (human)": {"target": "YES1 (human) (UniProt P07947)", "sequence (P07947 whole entry, looked up)": "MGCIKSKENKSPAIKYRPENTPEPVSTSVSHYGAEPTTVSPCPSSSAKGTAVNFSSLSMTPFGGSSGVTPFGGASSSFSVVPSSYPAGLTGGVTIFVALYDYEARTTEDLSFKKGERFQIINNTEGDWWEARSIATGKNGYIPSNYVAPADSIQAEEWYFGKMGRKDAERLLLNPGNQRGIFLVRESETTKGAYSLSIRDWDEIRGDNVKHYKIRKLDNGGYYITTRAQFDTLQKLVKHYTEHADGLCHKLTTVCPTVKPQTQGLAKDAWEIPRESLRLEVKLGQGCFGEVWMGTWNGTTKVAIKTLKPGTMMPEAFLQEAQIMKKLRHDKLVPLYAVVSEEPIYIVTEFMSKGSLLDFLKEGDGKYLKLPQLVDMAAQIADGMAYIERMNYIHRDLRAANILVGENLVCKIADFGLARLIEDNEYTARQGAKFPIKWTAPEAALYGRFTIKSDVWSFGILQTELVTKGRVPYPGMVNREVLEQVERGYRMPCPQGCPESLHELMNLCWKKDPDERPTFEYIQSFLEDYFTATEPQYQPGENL"}, "MAPK8 (human)": {"target": "MAPK8 (human) (UniProt P45983)"}, "CDK16 (human)": {"target": "CDK16 (human) (UniProt Q00536)", "sequence (Q00536 whole entry, looked up)": "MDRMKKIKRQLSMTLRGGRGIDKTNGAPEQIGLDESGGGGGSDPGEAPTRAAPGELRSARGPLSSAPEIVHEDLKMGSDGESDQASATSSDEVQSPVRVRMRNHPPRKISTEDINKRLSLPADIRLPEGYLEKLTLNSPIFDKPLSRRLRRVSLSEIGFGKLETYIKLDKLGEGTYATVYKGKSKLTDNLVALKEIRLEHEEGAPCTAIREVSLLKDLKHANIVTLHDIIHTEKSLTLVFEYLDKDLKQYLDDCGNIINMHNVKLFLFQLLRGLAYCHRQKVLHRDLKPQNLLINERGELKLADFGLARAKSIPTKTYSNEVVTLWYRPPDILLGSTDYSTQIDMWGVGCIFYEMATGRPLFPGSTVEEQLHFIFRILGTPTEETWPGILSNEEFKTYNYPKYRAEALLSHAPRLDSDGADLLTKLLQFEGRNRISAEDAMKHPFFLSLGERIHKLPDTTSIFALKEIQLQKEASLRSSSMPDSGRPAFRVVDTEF"}, "[4]": {"test_system": "PIK3CA (human), P42336 [H1047L]"}, "IKBKB (human)": {"target": "IKBKB (human) (UniProt O14920)"}, "NEK2 (human)": {"target": "NEK2 (human) (UniProt P51955)"}, "EPHB3 (human)": {"target": "EPHB3 (human) (UniProt P54753)"}, "PRKX (human)": {"target": "PRKX (human) (UniProt P51817)"}, "[5]": {"target": "JAK3 JH1 catalytic (human) (UniProt P52333)", "sequence (P52333 whole entry, looked up)": "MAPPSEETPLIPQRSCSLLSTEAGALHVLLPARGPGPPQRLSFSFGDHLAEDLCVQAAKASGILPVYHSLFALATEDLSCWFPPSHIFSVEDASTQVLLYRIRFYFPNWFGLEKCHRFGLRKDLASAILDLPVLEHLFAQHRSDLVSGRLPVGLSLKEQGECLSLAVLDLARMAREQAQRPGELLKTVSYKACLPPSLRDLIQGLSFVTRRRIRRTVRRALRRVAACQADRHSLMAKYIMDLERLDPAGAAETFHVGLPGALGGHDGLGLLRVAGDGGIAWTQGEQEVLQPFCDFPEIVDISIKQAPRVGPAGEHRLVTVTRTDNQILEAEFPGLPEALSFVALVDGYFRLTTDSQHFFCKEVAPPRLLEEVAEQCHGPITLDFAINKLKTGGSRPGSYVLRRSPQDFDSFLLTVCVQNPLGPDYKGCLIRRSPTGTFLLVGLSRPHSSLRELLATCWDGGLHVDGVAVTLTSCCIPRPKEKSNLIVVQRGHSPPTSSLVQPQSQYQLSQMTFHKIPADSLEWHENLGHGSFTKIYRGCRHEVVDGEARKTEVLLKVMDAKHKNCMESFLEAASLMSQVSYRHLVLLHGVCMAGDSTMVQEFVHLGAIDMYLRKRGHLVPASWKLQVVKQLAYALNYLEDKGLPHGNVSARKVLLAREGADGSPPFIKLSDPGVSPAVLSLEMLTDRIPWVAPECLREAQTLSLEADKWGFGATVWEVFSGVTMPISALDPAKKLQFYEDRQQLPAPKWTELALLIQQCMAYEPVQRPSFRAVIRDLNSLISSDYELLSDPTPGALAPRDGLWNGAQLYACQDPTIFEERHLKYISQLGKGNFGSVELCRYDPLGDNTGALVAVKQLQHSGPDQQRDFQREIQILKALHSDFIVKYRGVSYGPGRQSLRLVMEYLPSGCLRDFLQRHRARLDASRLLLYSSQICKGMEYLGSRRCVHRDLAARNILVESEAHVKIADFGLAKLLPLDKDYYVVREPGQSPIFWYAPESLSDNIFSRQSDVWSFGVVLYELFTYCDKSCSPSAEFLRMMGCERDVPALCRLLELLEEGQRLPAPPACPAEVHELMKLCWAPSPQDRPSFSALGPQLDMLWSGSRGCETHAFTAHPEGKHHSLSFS"}, "RPS6KA3 KD1 (human)": {"target": "RPS6KA3 KD1 (human) (UniProt P51812)"}},
  "data": [
    {"smiles": "COC(=O)Nc1ccc(-c2nc(N3CCOCC3)c3cnn(C4CCN(C(=O)OC)CC4)c3n2)cc1", "values": [
      {"measurement": "per cent of control", "setting": "PRKACA (human)", "result": 100, "unit": "%"},
      {"measurement": "kinase still bound, per cent of control", "setting": "MAP3K3 (human)", "result": 81, "unit": "%"},
      {"measurement": "kinase still bound, per cent of control", "setting": "MAPK7 (human)", "result": 100, "unit": "%"},
      {"measurement": "kinase still bound, per cent of control", "setting": "[1]", "result": 6.8, "unit": "%"},
      {"measurement": "kinase still bound, per cent of control", "setting": "GSK3A (human)", "result": 100, "unit": "%"},
      {"measurement": "kinase still bound, per cent of control", "setting": "CSNK2A2 (human)", "result": 83, "unit": "%"},
      {"measurement": "per cent of control", "setting": "CDK18 (human)", "result": 100, "unit": "%"},
      {"measurement": "kinase still bound, per cent of control", "setting": "RPS6KA2 KD1 (human)", "result": 100, "unit": "%"},
      {"measurement": "kinase still bound, per cent of control", "setting": "CPK1 (P.falciparum)", "result": 100, "unit": "%"},
      {"measurement": "kinase still bound, per cent of control", "setting": "CDC42BPA (human)", "result": 100, "unit": "%"},
      {"measurement": "kinase still bound, per cent of control", "setting": "[2]", "result": 78, "unit": "%"},
      {"measurement": "kinase still bound, per cent of control", "setting": "ADCK4 (human)", "result": 73, "unit": "%"},
      {"measurement": "kinase still bound, per cent of control", "setting": "YSK4 (human)", "result": 75, "unit": "%"},
      {"measurement": "kinase still bound, per cent of control", "setting": "ACVR1 (human)", "result": 100, "unit": "%"},
      {"measurement": "kinase still bound, per cent of control", "setting": "MAP4K3 (human)", "result": 74, "unit": "%"},
      {"measurement": "kinase still bound, per cent of control", "setting": "MERTK (human)", "result": 100, "unit": "%"},
      {"measurement": "kinase still bound, per cent of control", "setting": "PRKCH (human)", "result": 92, "unit": "%"},
      {"measurement": "kinase still bound, per cent of control", "setting": "PAK1 (human)", "result": 95, "unit": "%"},
      {"measurement": "kinase still bound, per cent of control", "setting": "MYLK3 (human)", "result": 100, "unit": "%"},
      {"measurement": "kinase still bound, per cent of control", "setting": "ROCK2 (human)", "result": 79, "unit": "%"},
      {"measurement": "kinase still bound, per cent of control", "setting": "STK24 (human)", "result": 100, "unit": "%"},
      {"measurement": "kinase still bound, per cent of control", "setting": "PAK3 (human)", "result": 83, "unit": "%"},
      {"measurement": "kinase still bound, per cent of control", "setting": "HIPK4 (human)", "result": 97, "unit": "%"},
      {"measurement": "per cent of control", "setting": "CDK13 (human)", "result": 100, "unit": "%"},
      {"measurement": "kinase still bound, per cent of control", "setting": "LATS2 (human)", "result": 86, "unit": "%"},
      {"measurement": "kinase still bound, per cent of control", "setting": "MLTK (human)", "result": 97, "unit": "%"},
      {"measurement": "kinase still bound, per cent of control", "setting": "TTK (human)", "result": 100, "unit": "%"},
      {"measurement": "kinase still bound, per cent of control", "setting": "[3]", "result": 100, "unit": "%"},
      {"measurement": "kinase still bound, per cent of control", "setting": "PRKCI (human)", "result": 100, "unit": "%"},
      {"measurement": "kinase still bound, per cent of control", "setting": "FER (human)", "result": 100, "unit": "%"},
      {"measurement": "kinase still bound, per cent of control", "setting": "PIK3C2B (human)", "result": 100, "unit": "%"},
      {"measurement": "kinase still bound, per cent of control", "setting": "YES1 (human)", "result": 97, "unit": "%"},
      {"measurement": "kinase still bound, per cent of control", "setting": "MAPK8 (human)", "result": 100, "unit": "%"},
      {"measurement": "per cent of control", "setting": "CDK16 (human)", "result": 100, "unit": "%"},
      {"measurement": "kinase still bound, per cent of control", "setting": "[4]", "result": 12, "unit": "%"},
      {"measurement": "kinase still bound, per cent of control", "setting": "IKBKB (human)", "result": 74, "unit": "%"},
      {"measurement": "kinase still bound, per cent of control", "setting": "NEK2 (human)", "result": 100, "unit": "%"},
      {"measurement": "kinase still bound, per cent of control", "setting": "EPHB3 (human)", "result": 74, "unit": "%"},
      {"measurement": "kinase still bound, per cent of control", "setting": "PRKX (human)", "result": 100, "unit": "%"},
      {"measurement": "kinase still bound, per cent of control", "setting": "[5]", "result": 100, "unit": "%"},
      {"measurement": "kinase still bound, per cent of control", "setting": "RPS6KA3 KD1 (human)", "result": 76, "unit": "%"}
    ]}
  ]
}
